What was measured:
[1] = The drug is tested on Coprococcus comes strain: ATCC27758 for biotransformation. The drug concentrations were measured before and after a 12-h incubation by liquid-chromatography-coupled mass spectrometry (LC–MS); assay type: ADME; parameters: dose 2 uM, timepoint 0 vs 12 hours; conditions: 2 µM
[2] = The drug is tested on Blautia hansenii strain: DSM20583 for biotransformation. The drug concentrations were measured before and after a 12-h incubation by liquid-chromatography-coupled mass spectrometry (LC–MS); conditions: 2 µM
[3] = The drug is tested on Bacteroides pectinophilus strain: ATCC43243 for biotransformation. The drug concentrations were measured before and after a 12-h incubation by liquid-chromatography-coupled mass spectrometry (LC–MS); conditions: 2 µM
[4] = The drug is tested on Providencia stuartii strain: ATCC25827 for biotransformation. The drug concentrations were measured before and after a 12-h incubation by liquid-chromatography-coupled mass spectrometry (LC–MS); conditions: 2 µM
[5] = The drug is tested on Bacteroides finegoldii strain: DSM17565 for biotransformation. The drug concentrations were measured before and after a 12-h incubation by liquid-chromatography-coupled mass spectrometry (LC–MS); conditions: 2 µM
[6] = The drug is tested on Bacteroides fragilis strain: ATCC43859 for biotransformation. The drug concentrations were measured before and after a 12-h incubation by liquid-chromatography-coupled mass spectrometry (LC–MS); conditions: 2 µM
[7] = The drug is tested on Collinsella intestinalis strain: DSM13280 for biotransformation. The drug concentrations were measured before and after a 12-h incubation by liquid-chromatography-coupled mass spectrometry (LC–MS); conditions: 2 µM
[8] = The drug is tested on Eubacterium ventriosum strain: ATCC27560 for biotransformation. The drug concentrations were measured before and after a 12-h incubation by liquid-chromatography-coupled mass spectrometry (LC–MS); assay type: ADME; parameters: dose 2 uM, timepoint 0 vs 12 hours; conditions: 2 µM
[9] = The drug is tested on Bacteroides xylanisolvens strain: DSM18836 for biotransformation. The drug concentrations were measured before and after a 12-h incubation by liquid-chromatography-coupled mass spectrometry (LC–MS); conditions: 2 µM
[10] = The drug is tested on Blautia luti strain: DSM14534 for biotransformation. The drug concentrations were measured before and after a 12-h incubation by liquid-chromatography-coupled mass spectrometry (LC–MS); assay type: ADME; parameters: dose 2 uM, timepoint 0 vs 12 hours; conditions: 2 µM
[11] = bacteroides fragilis, 12 h, 2 µM
Description: The drug is tested on Bacteroides fragilis strain: 3397 (T10) for biotransformation. The drug concentrations were measured before and after a 12-h incubation by liquid-chromatography-coupled mass spectrometry (LC–MS)

[12] = The drug is tested on Subdoligranulum variabile strain: DSM15176 for biotransformation. The drug concentrations were measured before and after a 12-h incubation by liquid-chromatography-coupled mass spectrometry (LC–MS); conditions: 2 µM
[13] = The drug is tested on Clostridium ramosum strain: DSM1402 for biotransformation. The drug concentrations were measured before and after a 12-h incubation by liquid-chromatography-coupled mass spectrometry (LC–MS); conditions: thomasclavelia ramosa, 2 µM
[14] = The drug is tested on Clostridium sporogenes strain: ATCC15579 for biotransformation. The drug concentrations were measured before and after a 12-h incubation by liquid-chromatography-coupled mass spectrometry (LC–MS); conditions: 2 µM
[15] = enterocloster bolteae, 12 h, 2 µM
Description: The drug is tested on Clostridium bolteae strain: ATCCBAA-613 for biotransformation. The drug concentrations were measured before and after a 12-h incubation by liquid-chromatography-coupled mass spectrometry (LC–MS)

[16] = bacteroides thetaiotaomicron, 12 h, 2 µM
Description: The drug is tested on Bacteroides thetaiotaomicron strain: 7330 for biotransformation. The drug concentrations were measured before and after a 12-h incubation by liquid-chromatography-coupled mass spectrometry (LC–MS)

[17] = The drug is tested on Alistipes indistinctus strain: DSM22520 for biotransformation. The drug concentrations were measured before and after a 12-h incubation by liquid-chromatography-coupled mass spectrometry (LC–MS); conditions: 2 µM
[18] = bacteroides thetaiotaomicron, 12 h, 2 µM; remark: listed apart in the source
Description: The drug is tested on Bacteroides thetaiotaomicron strain: 3731 for biotransformation. The drug concentrations were measured before and after a 12-h incubation by liquid-chromatography-coupled mass spectrometry (LC–MS)

[19] = segatella copri, 12 h, 2 µM
Description: The drug is tested on Prevotella copri strain: DSM18205 for biotransformation. The drug concentrations were measured before and after a 12-h incubation by liquid-chromatography-coupled mass spectrometry (LC–MS)

[20] = akkermansia muciniphila, 12 h, 2 µM
Description: The drug is tested on Akkermansia muciniphila strain: ATCC BAA-835 for biotransformation. The drug concentrations were measured before and after a 12-h incubation by liquid-chromatography-coupled mass spectrometry (LC–MS)

| SMILES | Bacterial Biotransformation [1] | Bacterial Biotransformation [2] | Bacterial Biotransformation [3] | Bacterial Biotransformation [4] | Bacterial Biotransformation [5] | Bacterial Biotransformation [6] | Bacterial Biotransformation [7] | Bacterial Biotransformation [8] | Bacterial Biotransformation [9] | Bacterial Biotransformation [10] | Bacterial Biotransformation [11] | Bacterial Biotransformation [12] | Bacterial Biotransformation [13] | Bacterial Biotransformation [14] | Bacterial Biotransformation [15] | Bacterial Biotransformation [16] | Bacterial Biotransformation [17] | Bacterial Biotransformation [18] | Bacterial Biotransformation [19] | Bacterial Biotransformation [20] |
| --- | --- | --- | --- | --- | --- | --- | --- | --- | --- | --- | --- | --- | --- | --- | --- | --- | --- | --- | --- | --- |
| OC(CCN1CCCCC1)(c1ccccc1)C1CCCCC1 (centres undefined) [TRIHEXYPHENIDYL] | Compound NOT metabolized | Compound metabolized | Compound NOT metabolized | Compound NOT metabolized | Compound NOT metabolized | Compound NOT metabolized | Compound NOT metabolized | Compound NOT metabolized | Compound NOT metabolized | Compound NOT metabolized | Compound NOT metabolized | Compound NOT metabolized | – | – | – | – | – | – | – | – |
| CC(C)c1nc(CN(C)C(=O)N[C@H](C(=O)N[C@@H](Cc2ccccc2)C[C@H](O)[C@H](Cc2ccccc2)NC(=O)OCc2cncs2)C(C)C)cs1 [RITONAVIR] | – | Compound metabolized | Compound NOT metabolized | Compound NOT metabolized | Compound NOT metabolized | – | Compound NOT metabolized | Compound NOT metabolized | Compound metabolized | – | Compound NOT metabolized | Compound NOT metabolized | Compound NOT metabolized | Compound NOT metabolized | Compound NOT metabolized | Compound NOT metabolized | Compound NOT metabolized | Compound NOT metabolized | Compound NOT metabolized | Compound NOT metabolized |
| CC(C)(C)NC[C@H](O)COc1nsnc1N1CCOCC1.O=C(O)/C=C\C(=O)O [TIMOLOL MALEATE] | Compound NOT metabolized | Compound NOT metabolized | Compound NOT metabolized | Compound NOT metabolized | Compound NOT metabolized | – | Compound NOT metabolized | Compound NOT metabolized | Compound NOT metabolized | Compound NOT metabolized | Compound NOT metabolized | Compound NOT metabolized | – | Compound NOT metabolized | Compound NOT metabolized | – | – | Compound NOT metabolized | Compound NOT metabolized | Compound NOT metabolized |
| O=P(O)(O)O.c1ccc(CN(CC2=NCCN2)c2ccccc2)cc1 [ANTAZOLINE PHOSPHATE] | Compound NOT metabolized | Compound NOT metabolized | Compound NOT metabolized | Compound NOT metabolized | Compound NOT metabolized | Compound NOT metabolized | Compound NOT metabolized | Compound NOT metabolized | Compound NOT metabolized | Compound NOT metabolized | Compound NOT metabolized | Compound NOT metabolized | – | Compound NOT metabolized | Compound NOT metabolized | – | – | – | Compound NOT metabolized | Compound NOT metabolized |
| Cc1ccc(-c2nc3ccc(C)cn3c2CC(=O)N(C)C)cc1 [ZOLPIDEM] | Compound NOT metabolized | Compound NOT metabolized | Compound NOT metabolized | Compound NOT metabolized | Compound NOT metabolized | – | Compound NOT metabolized | Compound NOT metabolized | – | Compound NOT metabolized | Compound NOT metabolized | Compound NOT metabolized | Compound NOT metabolized | Compound NOT metabolized | Compound NOT metabolized | Compound NOT metabolized | Compound NOT metabolized | Compound NOT metabolized | Compound NOT metabolized | Compound NOT metabolized |
| C#C[C@]1(OC(C)=O)CC[C@H]2[C@@H]3CCC4=C[C@@H](OC(C)=O)CC[C@@H]4[C@H]3CC[C@@]21C [ETHYNODIOL DIACETATE] | Compound NOT metabolized | Compound NOT metabolized | Compound NOT metabolized | Compound NOT metabolized | Compound NOT metabolized | – | Compound NOT metabolized | Compound NOT metabolized | Compound NOT metabolized | – | Compound NOT metabolized | Compound NOT metabolized | Compound NOT metabolized | Compound NOT metabolized | Compound NOT metabolized | Compound NOT metabolized | – | Compound NOT metabolized | Compound NOT metabolized | Compound NOT metabolized |
| COc1ccc(C(CN(C)C)C2(O)CCCCC2)cc1 (centres undefined) [VENLAFAXINE] | – | – | Compound NOT metabolized | Compound NOT metabolized | Compound NOT metabolized | Compound NOT metabolized | Compound NOT metabolized | Compound NOT metabolized | Compound NOT metabolized | Compound NOT metabolized | Compound NOT metabolized | Compound NOT metabolized | Compound NOT metabolized | Compound NOT metabolized | Compound NOT metabolized | Compound NOT metabolized | Compound NOT metabolized | Compound NOT metabolized | Compound NOT metabolized | Compound NOT metabolized |

Reference: ChEMBL document CHEMBL5303573, “Mapping human microbiome drug metabolism by gut bacteria and their genes” (Nature, 2019)
